According to ChEMBL document CHEMBL6120950, “Deep-Learning-Driven Discovery of SN3-1, a Potent NLRP3 Inhibitor with Therapeutic Potential for Inflammatory Diseases” (J Med Chem, 2024):
The source made the active and inactive calls. The calls are words filed in the database; no cut-off is given here.

Tests used:
HEK-293T = experiment: Cytotoxicity against human HEK293T cells assessed as effect on cell viability at 50 uM incubated for 24 hrs by CCK-8 assay; assay type: toxicity, cell-based
[1] = Glutathione reactivity in PBS buffer; assay type: physicochemical
[2] = biological target: NACHT, LRR and PYD domains-containing protein 3 (Homo sapiens, UniProt Q96P20); experiment: Inhibition of NLRP3 inflammasome pathway in human THP-1 cells assessed as LPS-stimulated IL-1beta release pretreated with LPS for 3 hrs followed by compound addition for 30 mins prior to MSU addition and measured after 30 mins by ELISA; assay type: cell-based
[3] = Acute toxicity in mouse assessed as mortality at 2000 mg/kg, po measured on day 1; assay type: organism-based; conditions: in vivo, 24 h, time 1 day
[4] = Acute toxicity in C57BL/6J mouse assessed as mortality at 2000 mg/kg, po measured for 1 week; assay type: organism-based; conditions: in vivo, 168 h, time 1 weeks
[5] = Acute toxicity in po dosed C57BL/6J mouse assessed as lethal dose at measured for 1 week; assay type: organism-based; conditions: in vivo, time 1 weeks
[6] = Chronic toxicity in mouse assessed as reduction in body weight at 300 mg/kg, po administered every day for 12 days; assay type: organism-based; conditions: in vivo, 288 h, time 12 day
[7] = Chronic toxicity in ICR mouse assessed as change in nitrogen level at 300 mg/kg, po administered every day for 12 days; assay type: organism-based; conditions: in vivo, 288 h, time 12 day
[8] = Chronic toxicity in ICR mouse assessed as change in uric acid level at 300 mg/kg, po administered every day for 12 days; assay type: organism-based; conditions: in vivo, 288 h, time 12 day
[9] = Chronic toxicity in ICR mouse assessed as change in creatinine level at 300 mg/kg, po administered every day for 12 days; assay type: organism-based; conditions: in vivo, 288 h, time 12 day
[10] = Chronic toxicity in ICR mouse assessed as change in AST level at 300 mg/kg, po administered every day for 12 days; assay type: organism-based; conditions: in vivo, 288 h, time 12 day
[11] = Chronic toxicity in ICR mouse assessed as change in ALT level at 300 mg/kg, po administered every day for 12 days; assay type: organism-based; conditions: in vivo, 288 h, time 12 day
BMDM = experiment: Induction ROS production in human BMDM cells by MitoSOX probe based analysis; assay type: functional, cell-based
[12] = Microsomal stability in human liver microsome assessed half life; assay type: ADME; conditions: liver microsomes
[13] = Cmax in ICR mouse at 1 mg/kg, iv measured upto 24 hrs by LC-MS/MS analysis; assay type: ADME, organism-based; conditions: in vivo
[14] = Cmax in ICR mouse at 10 mg/kg, po measured upto 24 hrs by LC-MS/MS analysis; assay type: ADME, organism-based; conditions: in vivo
[15] = Tmax in ICR mouse at 1 mg/kg, iv measured upto 24 hrs by LC-MS/MS analysis; assay type: ADME, organism-based; conditions: in vivo
[16] = Tmax in ICR mouse at 10 mg/kg, po measured upto 24 hrs by LC-MS/MS analysis; assay type: ADME, organism-based; conditions: in vivo
[17] = Half life in ICR mouse at 1 mg/kg, iv measured upto 24 hrs by LC-MS/MS analysis; assay type: ADME, organism-based; conditions: in vivo
[18] = Half life in ICR mouse at 10 mg/kg, po measured upto 24 hrs by LC-MS/MS analysis; assay type: ADME, organism-based; conditions: in vivo
[19] = AUC (0 to t) in ICR mouse at 1 mg/kg, iv measured upto 24 hrs by LC-MS/MS analysis; assay type: ADME, organism-based; conditions: in vivo
[20] = AUC (0 to t) in ICR mouse at 10 mg/kg, po measured upto 24 hrs by LC-MS/MS analysis; assay type: ADME, organism-based; conditions: in vivo
[21] = Clearance in ICR mouse at 1 mg/kg, iv measured upto 24 hrs by LC-MS/MS analysis; assay type: ADME, organism-based; conditions: in vivo
[22] = MRT (0 to t) in ICR mouse at 1 mg/kg, iv measured upto 24 hrs by LC-MS/MS analysis; assay type: ADME, organism-based; conditions: in vivo
[23] = MRT (0 to t) in ICR mouse at 10 mg/kg, po measured upto 24 hrs by LC-MS/MS analysis; assay type: ADME, organism-based; conditions: in vivo
[24] = Volume of distribution at steady state in ICR mouse at 1 mg/kg, iv measured upto 24 hrs by LC-MS/MS analysis; assay type: ADME, organism-based; conditions: in vivo, read-out: Vdss
[25] = Oral bioavailability in ICR mouse at 10 mg/kg measured upto 24 hrs by LC-MS/MS analysis; assay type: ADME, organism-based; conditions: in vivo
Mus musculus [26] = experiment: Anti-inflammatory activity in MSU-induced acute gouty arthritis ICR mouse model assessed as reduction in ankle swelling at 30 mg/kg, po administered for 7 days; assay type: functional, organism-based; conditions: time 7.0 day
Mus musculus [27] = experiment: Antialzheimer activity against scopolamine-induced cognitive impairment in C57BL/6 mouse assessed as increase in number of platform crossing at 30 mg/kg, po measured upto 14 days by morris water maze test; assay type: functional, organism-based; conditions: time <= 14.0 day
[28] = Toxicity in C57BL/6 mouse assessed as total distance travelled at 30 mg/kg, po measured up to 7 days by open field test; assay type: organism-based; conditions: in vivo, 168 h, time < 7 day

Chain of NACHT, LRR and PYD domains-containing protein 3 (Q96P20 whole entry, the tested form may be a part): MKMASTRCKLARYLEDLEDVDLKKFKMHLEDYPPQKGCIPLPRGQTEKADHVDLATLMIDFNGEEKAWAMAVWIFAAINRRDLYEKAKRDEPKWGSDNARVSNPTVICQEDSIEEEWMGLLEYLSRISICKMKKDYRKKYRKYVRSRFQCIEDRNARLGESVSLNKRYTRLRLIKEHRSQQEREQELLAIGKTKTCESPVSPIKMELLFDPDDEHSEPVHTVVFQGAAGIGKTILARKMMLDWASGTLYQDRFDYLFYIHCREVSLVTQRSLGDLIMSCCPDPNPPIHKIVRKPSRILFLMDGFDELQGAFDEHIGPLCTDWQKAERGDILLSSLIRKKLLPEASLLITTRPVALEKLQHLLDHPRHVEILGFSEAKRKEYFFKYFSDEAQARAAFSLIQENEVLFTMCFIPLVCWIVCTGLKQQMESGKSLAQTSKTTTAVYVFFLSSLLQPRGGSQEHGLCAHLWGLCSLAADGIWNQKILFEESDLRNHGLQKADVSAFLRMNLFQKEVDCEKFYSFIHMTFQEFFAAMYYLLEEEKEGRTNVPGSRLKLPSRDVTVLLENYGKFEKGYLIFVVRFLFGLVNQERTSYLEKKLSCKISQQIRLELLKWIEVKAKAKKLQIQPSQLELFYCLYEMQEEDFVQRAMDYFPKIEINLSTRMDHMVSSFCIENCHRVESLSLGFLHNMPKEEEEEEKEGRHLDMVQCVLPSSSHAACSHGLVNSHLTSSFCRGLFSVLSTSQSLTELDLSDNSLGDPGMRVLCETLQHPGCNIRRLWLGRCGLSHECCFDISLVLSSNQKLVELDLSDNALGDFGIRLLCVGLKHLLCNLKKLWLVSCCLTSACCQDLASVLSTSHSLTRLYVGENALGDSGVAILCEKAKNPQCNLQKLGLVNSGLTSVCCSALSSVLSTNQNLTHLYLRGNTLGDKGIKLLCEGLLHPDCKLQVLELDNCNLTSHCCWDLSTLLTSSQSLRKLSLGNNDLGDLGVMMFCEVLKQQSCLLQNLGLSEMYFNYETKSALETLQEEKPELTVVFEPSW

CC(C)(O)c1coc(S(=O)(=O)NC(=O)Nc2c(-c3ccc4ccccc4c3)ccc3c2CCC3)c1
Activity (HEK-293T): Non-toxic | Drug metabolism [1]: metabolite_detected

CC(C)(O)c1coc(S(=O)(=O)NC(=O)NC2c3ccccc3-c3ccccc32)c1
IC50 [2]: > 1000 nM

COC(=O)c1csc(CNC(=O)Nc2c(-c3cccc(Cl)c3Cl)ccc3c2CCC3)c1
IC50 [2]: > 1000 nM

CC(C)(O)c1coc(S(=O)(=O)NC(=O)Nc2c3c(cc(Br)c2OC2CCCCC2)CCC3)c1
IC50 [2]: > 1000 nM

CC(C)(O)c1coc(S(=O)(=O)NC(=O)NC2CCCc3ccccc32)c1 (stereo not given)
IC50 [2]: > 1000 nM

CC(C)(O)c1coc(S(=O)(=O)NC(=O)Nn2ccc3cccnc32)c1
IC50 [2]: > 1000 nM

CC(=O)c1csc(NC(=O)Nc2c(-c3cccc(Cl)c3Cl)ccc3c2CCC3)c1
IC50 [2]: > 1000 nM

CC(C)(O)c1coc(S(=O)(=O)NC(=O)Nc2cccc3c2CCC3)c1
IC50 [2]: > 1000 nM

C=C(C)c1csc(SCC(=O)Nc2c(-c3cccc(Cl)c3Cl)ccc3c2CCC3)c1
IC50 [2]: > 1000 nM

CC(C)(O)c1csc(S(=O)(=O)NC(=O)Nc2c(-c3cccc(Cl)c3Cl)ccc3c2CCC3)c1
Activity [3]: Toxic | Activity [4]: Non-toxic | LD50 at 168 h [5]: 2000 mg/kg | Activity [6]: Non-toxic | Activity [7]: Non-toxic | Activity [8]: Non-toxic | Activity [9]: Non-toxic | Activity [10]: Non-toxic | Activity [11]: Non-toxic | Activity (BMDM): Active | half-life [12]: 94.2 min | Cmax [13]: 3920 ng/mL | Cmax [14]: 7120 ng/mL | Tmax [15]: 4.98 min | Tmax [16]: 30 min | half-life [17]: 154 min | half-life [18]: 112 min | AUC(0-t) at 24 h [19]: 2610 ng·h/mL | AUC(0-t) at 24 h [20]: 9710 ng·h/mL | clearance [21]: 6.1 mL/min/kg | MRT last at 24 h [22]: 1.75 h | MRT last at 24 h [23]: 1.73 h | Vd [24]: 0.638 L/kg | bioavailability [25]: 36.8% | Activity (Mus musculus [26]): Active | Activity (Mus musculus [27]): Active | Activity [28]: Non-toxic

CC(C)(O)c1coc(S(=O)(=O)NC(=O)Nc2c(-c3cccc(Cl)c3Cl)ccc3c2CCC3)c1
Activity (HEK-293T): Non-toxic | Drug metabolism [1]: metabolite_detected

CC(C)(O)c1coc(S(=O)(=O)NC(=O)Nc2c(-c3ccc(N4CCOCC4)cc3)ccc3c2CCC3)c1
IC50 [2]: > 1000 nM
